Results published in EP4603105A1, “PHARMACEUTICAL COMPOSITION CONTAINING CYCLIC COMPOUND HAVING SELECTIVE KRAS INHIBITORY EFFECT AGAINST HRAS AND NRAS” (CHUGAI SEIYAKU KABUSHIKI KAISHA, priority 2022, dated 2024).
*1 amine or outer side, *2 acyl side, *3 side chain or, on linkers, in order; H or OH if unused. Where a SMILES comes first, the peptide text is derived from it. Bridges are numbered along the chain shown (N, C = ends). [ ]: non-standard residue; d: D form. The star is where a group is joined. hPhe(3,5-F2-4-CF3) = N[C@@H](CCc1cc(F)c(C(F)(F)F)c(F)c1)C(=O)O; NPrPhe(4-CF3) = CCCN[C@@H](Cc1ccc(C(F)(F)F)cc1)C(=O)O; NMeAbu(4,4,4-F3) = CN[C@@H](CC(F)(F)F)C(=O)O; X16 = O=C([C@@H](N[*:1])C1CC(F)(F)C1)[*:2]; NMeGly(cPent) = CN[C@H](C(=O)O)C1CCCC1; Ac4c(3,3-F2) = NC1(C(=O)O)CC(F)(F)C1; αMeCha = C[C@](N)(CC1CCCCC1)C(=O)O; Nva(3-Et) = CCC(CC)[C@H](N)C(=O)O; X3 = CCC[C@](C)(N[*:1])C(=O)[*:2]; αMeI = CC[C@H](C)[C@](C)(N)C(=O)O; NMeD = CN[C@@H](CC(=O)O)C(=O)O; Ac4c(3-oxa) = NC1(C(=O)O)COC1; NMeL = CN[C@@H](CC(C)C)C(=O)O; Morpholide = C1CN(*)CCO1; Ac5c = NC1(C(=O)O)CCCC1; Aze = O=C(O)[C@@H]1CCN1; Sar = CNCC(=O)O

Assays:
[1] = tested on: human lung cancer strain NCI-H441; format: cell-based
Procedure, shortened: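 Signal came from […] measured per well once the reagent was added. Beforehand, cells were cultured at 37°C and 5% carbon dioxide on a compound series serially diluted in dimethyl sulfoxide.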

[2] = target: HRAS wild-type protein (Homo sapiens, UniProt P01112); assay: Binding to HRAS by surface plasmon resonance (SPR), KD and KD ratio to KRAS
Procedure, shortened: (§1)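 Recombinant RAS proteins bearing a biotinylated Avi tag and loaded with GDP served as the captured ligand, recaptured fresh every cycle. Binding responses were referenced to an uncoated surface and a buffer-only blank cycle. Dissociation constants were obtained by 1:1 model fitting at 30°C.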

[3] = target: GDP-bound NRAS wild-type protein (Homo sapiens, UniProt P01111); assay: Binding to NRAS by surface plasmon resonance (SPR), KD and KD ratio to KRAS
Procedure, shortened: as §1

[4] = ratio of the KD value with respect to HRAS wild-type protein to the KD value with respect to KRAS
[5] = ratio of the KD value with respect to GDP-bound NRAS wild-type protein to the KD value with respect to KRAS
[6] = ratio of KD for HRAS wild-type protein to KD for KRAS
[7] = ratio of KD for GDP-bound NRAS wild-type protein to KD for KRAS

Sequence of GDP-bound NRAS wild-type protein (P01111 whole entry): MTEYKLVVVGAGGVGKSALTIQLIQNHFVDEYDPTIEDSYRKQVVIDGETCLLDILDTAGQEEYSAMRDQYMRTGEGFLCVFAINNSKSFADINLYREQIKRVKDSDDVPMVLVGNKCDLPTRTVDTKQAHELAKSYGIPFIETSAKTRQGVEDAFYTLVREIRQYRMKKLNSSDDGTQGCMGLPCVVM
Sequence of HRAS wild-type protein (P01112 whole entry): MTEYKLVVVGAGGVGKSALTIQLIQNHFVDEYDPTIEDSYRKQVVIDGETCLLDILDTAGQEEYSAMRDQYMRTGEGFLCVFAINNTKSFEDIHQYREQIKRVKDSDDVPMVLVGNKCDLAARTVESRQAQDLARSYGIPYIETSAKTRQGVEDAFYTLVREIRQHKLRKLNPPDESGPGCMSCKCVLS

Compound | IC50 [1] | HRAS /KRAS [2, 4] | NRAS /KRAS [3, 5] | HRAS /KRAS [2, 6] | NRAS /KRAS [3, 7]
CCCN1C(=O)CN(C)C(=O)CN(C)C(=O)[C@H]([C@@H](C)CC)NC(=O)[C@H](CC(C)C)N(C)C(=O)C[C@@H](C(=O)N2CCOCC2)N(C)C(=O)[C@H](C2CCCC2)N(C)C(=O)[C@](C)(CC2CCCCC2)NC(=O)[C@@H]2CCCN2C(=O)[C@H](CCc2cc(F)c(C(F)(F)F)c(F)c2)NC(=O)CN(C)C(=O)[C@@H]1Cc1ccc(C(F)(F)F)cc1 [PP0760] ([NMeL]I[Sar][Sar][NPrPhe(4-CF3)][Sar][hPhe(3,5-F2-4-CF3)]P[αMeCha][NMeGly(cPent)][NMeD]-Morpholide; lactam N-11) | 310 nM | C (A compound having a KD ratio of 0.1 or more and less than 3 is denoted as C) | B (a compound having 3 or more and less than 10 is denoted as B) |  | 
CCCN1C(=O)CN(C)C(=O)CN(C)C(=O)[C@H]([C@@H](C)CC)NC(=O)[C@H](CC(C)C)N(C)C(=O)C[C@@H](C(=O)N2CCOCC2)N(C)C(=O)[C@H](CC(F)(F)F)N(C)C(=O)C2(CCCC2)NC(=O)[C@@H]2CCCN2C(=O)[C@H](CCc2cc(F)c(C(F)(F)F)c(F)c2)NC(=O)CN(C)C(=O)[C@@H]1Cc1ccc(C(F)(F)F)cc1 [PP0767] ([NMeL]I[Sar][Sar][NPrPhe(4-CF3)][Sar][hPhe(3,5-F2-4-CF3)]P[Ac5c][NMeAbu(4,4,4-F3)][NMeD]-Morpholide; lactam N-11) | 158 nM |  |  | C (A compound having a KD ratio of 0.1 or more and less than 3 is denoted as C) | B (a compound having 3 or more and less than 10 is denoted as B)
CCCN1C(=O)CN(C)C(=O)[C@@H]2CCN2C(=O)[C@H]([C@@H](C)CC)NC(=O)[C@H](CC(C)C)N(C)C(=O)C[C@@H](C(=O)N2CCOCC2)N(C)C(=O)[C@H](C2CCCC2)N(C)C(=O)[C@](C)([C@@H](C)CC)NC(=O)[C@@H]2CCCN2C(=O)[C@H](CCc2cc(F)c(C(F)(F)F)c(F)c2)NC(=O)CN(C)C(=O)[C@@H]1Cc1ccc(C(F)(F)F)cc1 [PP0774] ([NMeL]I[Aze][Sar][NPrPhe(4-CF3)][Sar][hPhe(3,5-F2-4-CF3)]P[αMeI][NMeGly(cPent)][NMeD]-Morpholide; lactam N-11) | 478 nM |  |  | B (a compound having 3 or more and less than 10 is denoted as B) | B (a compound having 3 or more and less than 10 is denoted as B)
CCCN1C(=O)CN(C)C(=O)[C@@H]2CCN2C(=O)[C@H]([C@@H](C)CC)NC(=O)[C@H](CC(C)C)N(C)C(=O)C[C@@H](C(=O)N2CCOCC2)N(C)C(=O)[C@H](C2CCCC2)N(C)C(=O)C2(COC2)NC(=O)[C@@H]2CCCN2C(=O)[C@H](CCc2cc(F)c(C(F)(F)F)c(F)c2)NC(=O)CN(C)C(=O)[C@@H]1Cc1ccc(C(F)(F)F)cc1 [PP0782] ([NMeL]I[Aze][Sar][NPrPhe(4-CF3)][Sar][hPhe(3,5-F2-4-CF3)]P[Ac4c(3-oxa)][NMeGly(cPent)][NMeD]-Morpholide; lactam N-11) | 425 nM |  |  | B (a compound having 3 or more and less than 10 is denoted as B) | B (a compound having 3 or more and less than 10 is denoted as B)
CCCN1C(=O)CN(C)C(=O)[C@@H]2CCN2C(=O)[C@H]([C@@H](C)CC)NC(=O)[C@H](CC(C)C)N(C)C(=O)C[C@@H](C(=O)N2CCOCC2)N(C)C(=O)[C@H](CC(F)(F)F)N(C)C(=O)C2(CCCC2)NC(=O)[C@@H]2CCCN2C(=O)[C@H](CCc2cc(F)c(C(F)(F)F)c(F)c2)NC(=O)CN(C)C(=O)[C@@H]1Cc1ccc(C(F)(F)F)cc1 [PP0784] ([NMeL]I[Aze][Sar][NPrPhe(4-CF3)][Sar][hPhe(3,5-F2-4-CF3)]P[Ac5c][NMeAbu(4,4,4-F3)][NMeD]-Morpholide; lactam N-11) | 447 nM |  |  | B (a compound having 3 or more and less than 10 is denoted as B) | B (a compound having 3 or more and less than 10 is denoted as B)

Further lines, with some results ahead:

IC50 [1] | Compound | HRAS /KRAS [2, 4] | NRAS /KRAS [3, 5] | HRAS /KRAS [2, 6] | NRAS /KRAS [3, 7]
153 nM | CCCN1C(=O)CN(C)C(=O)CN(C)C(=O)[C@H]([C@@H](C)CC)NC(=O)[C@H](CC(C)C)N(C)C(=O)C[C@@H](C(=O)N2CCOCC2)N(C)C(=O)[C@H](C2CCCC2)N(C)C(=O)[C@](C)(CCC)NC(=O)[C@@H]2CCCN2C(=O)[C@H](CCc2cc(F)c(C(F)(F)F)c(F)c2)NC(=O)CN(C)C(=O)[C@@H]1Cc1ccc(C(F)(F)F)cc1 [PP0758] ([NMeL]I[Sar][Sar][NPrPhe(4-CF3)][Sar][hPhe(3,5-F2-4-CF3)]P[X3][NMeGly(cPent)][NMeD]-Morpholide; lactam N-11) | C (A compound having a KD ratio of 0.1 or more and less than 3 is denoted as C) | B (a compound having 3 or more and less than 10 is denoted as B) |  | 
123 nM | CCCN1C(=O)CN(C)C(=O)CN(C)C(=O)[C@H]([C@@H](C)CC)NC(=O)[C@H](CC(C)C)N(C)C(=O)C[C@@H](C(=O)N2CCOCC2)N(C)C(=O)[C@H](C2CCCC2)N(C)C(=O)C2(COC2)NC(=O)[C@@H]2CCCN2C(=O)[C@H](CCc2cc(F)c(C(F)(F)F)c(F)c2)NC(=O)CN(C)C(=O)[C@@H]1Cc1ccc(C(F)(F)F)cc1 [PP0765] ([NMeL]I[Sar][Sar][NPrPhe(4-CF3)][Sar][hPhe(3,5-F2-4-CF3)]P[Ac4c(3-oxa)][NMeGly(cPent)][NMeD]-Morpholide; lactam N-11) |  |  | C (A compound having a KD ratio of 0.1 or more and less than 3 is denoted as C) | B (a compound having 3 or more and less than 10 is denoted as B)
8.7 nM | CCCN1C(=O)CN(C)C(=O)CN(C)C(=O)[C@H]([C@@H](C)CC)NC(=O)[C@H](CC(C)C)N(C)C(=O)C[C@@H](C(=O)N2CCOCC2)N(C)C(=O)[C@H](C2CCCC2)N(C)C(=O)C2(CC(F)(F)C2)NC(=O)[C@@H]2CCCN2C(=O)[C@H](CCc2cc(F)c(C(F)(F)F)c(F)c2)NC(=O)CN(C)C(=O)[C@@H]1Cc1ccc(C(F)(F)F)cc1 [PP0766] ([NMeL]I[Sar][Sar][NPrPhe(4-CF3)][Sar][hPhe(3,5-F2-4-CF3)]P[Ac4c(3,3-F2)][NMeGly(cPent)][NMeD]-Morpholide; lactam N-11) |  |  | B (a compound having 3 or more and less than 10 is denoted as B) | B (a compound having 3 or more and less than 10 is denoted as B)
36.1 nM | CCCN1C(=O)CN(C)C(=O)CN(C)C(=O)[C@H](C(CC)CC)NC(=O)[C@H](CC(C)C)N(C)C(=O)C[C@@H](C(=O)N2CCOCC2)N(C)C(=O)[C@H](C2CCCC2)N(C)C(=O)C2(CCCC2)NC(=O)[C@@H]2CCCN2C(=O)[C@H](CCc2cc(F)c(C(F)(F)F)c(F)c2)NC(=O)CN(C)C(=O)[C@@H]1Cc1ccc(C(F)(F)F)cc1 [PP0768] ([NMeL][Nva(3-Et)][Sar][Sar][NPrPhe(4-CF3)][Sar][hPhe(3,5-F2-4-CF3)]P[Ac5c][NMeGly(cPent)][NMeD]-Morpholide; lactam N-11) |  |  | C (A compound having a KD ratio of 0.1 or more and less than 3 is denoted as C) | B (a compound having 3 or more and less than 10 is denoted as B)
43.3 nM | CCCN1C(=O)CN(C)C(=O)CN(C)C(=O)[C@H](C2CC(F)(F)C2)NC(=O)[C@H](CC(C)C)N(C)C(=O)C[C@@H](C(=O)N2CCOCC2)N(C)C(=O)[C@H](C2CCCC2)N(C)C(=O)C2(CCCC2)NC(=O)[C@@H]2CCCN2C(=O)[C@H](CCc2cc(F)c(C(F)(F)F)c(F)c2)NC(=O)CN(C)C(=O)[C@@H]1Cc1ccc(C(F)(F)F)cc1 [PP0769] ([NMeL][X16][Sar][Sar][NPrPhe(4-CF3)][Sar][hPhe(3,5-F2-4-CF3)]P[Ac5c][NMeGly(cPent)][NMeD]-Morpholide; lactam N-11) |  |  | C (A compound having a KD ratio of 0.1 or more and less than 3 is denoted as C) | B (a compound having 3 or more and less than 10 is denoted as B)
62.2 nM | CCCN1C(=O)CN(C)C(=O)[C@@H]2CCN2C(=O)[C@H]([C@@H](C)CC)NC(=O)[C@H](CC(C)C)N(C)C(=O)C[C@@H](C(=O)N2CCOCC2)N(C)C(=O)[C@H](C2CCCC2)N(C)C(=O)C2(CCCC2)NC(=O)[C@@H]2CCCN2C(=O)[C@H](CCc2cc(F)c(C(F)(F)F)c(F)c2)NC(=O)CN(C)C(=O)[C@@H]1Cc1ccc(C(F)(F)F)cc1 [PP0770] ([NMeL]I[Aze][Sar][NPrPhe(4-CF3)][Sar][hPhe(3,5-F2-4-CF3)]P[Ac5c][NMeGly(cPent)][NMeD]-Morpholide; lactam N-11) |  |  | B (a compound having 3 or more and less than 10 is denoted as B) | B (a compound having 3 or more and less than 10 is denoted as B)
122 nM | CCCN1C(=O)CN(C)C(=O)[C@@H]2CCN2C(=O)[C@H]([C@@H](C)CC)NC(=O)[C@H](CC(C)C)N(C)C(=O)C[C@@H](C(=O)N2CCOCC2)N(C)C(=O)[C@H](C2CCCC2)N(C)C(=O)C2(CC(F)(F)C2)NC(=O)[C@@H]2CCCN2C(=O)[C@H](CCc2cc(F)c(C(F)(F)F)c(F)c2)NC(=O)CN(C)C(=O)[C@@H]1Cc1ccc(C(F)(F)F)cc1 [PP0783] ([NMeL]I[Aze][Sar][NPrPhe(4-CF3)][Sar][hPhe(3,5-F2-4-CF3)]P[Ac4c(3,3-F2)][NMeGly(cPent)][NMeD]-Morpholide; lactam N-11) |  |  | B (a compound having 3 or more and less than 10 is denoted as B) | B (a compound having 3 or more and less than 10 is denoted as B)
